Read-outs that look alike come from different tables or passages of the source.
What was measured:
Bt toxin (Cry1Ac) = system: Bt toxin (Cry1Ac)
Experimental: An immunoenzymatic assay was used to determine the Bt levels at different stages of plant development. • a) Measured Bt toxin values; ordinate: Bt expressed as ppm; abscissa: days of plant culture and where different, plant tissue.
The assay was carried out on samples collected at different plant development stages, which were: 4, 35, 60, 85 days after sowing.
The ELISA Cry1Ab/Cry1Ac Plate Kit was obtained from Envirologix (Portland, Maine—USA). The assay was performed according to the Envirologix protocol with the following modifications: • 1. The cotton freeze-dried powder got from leaf or cotyledon tissues was used instead of the fresh and whole leaf tissue. • 2. The Bt toxin extraction from the cotton freeze-dried powder was done with a sample/buffer ratio of 1:25 (w/v). • 3. The extraction was made leaving the sample in the buffer for at least 4 hours at room temperature, instead of using the Envirologix Disposable Tissue Extractor. The extract was then clarified by centrifugation at 5,000×g for 5 min at room temperature.
Cotton seeds of the cv. Sicala V2i were previously rinsed in distilled water and then placed in equal number in suitable plastic boxes containing settled and sterile sand. Seeds were watered with equal volumes of distilled water and the culture boxes were then covered with a plastic film to avoid evaporation during germination, which was carried out in the dark for 4 days at 30° C. […] After 4 days, these sprouts were collected for testing, whereas the other sprouts were moved in suitable pots and located in the greenhouse at 24° C. during the day and 20° C. in the night.
Treatments were given out vaporizing the diluted formulation on the plants taking care to treat both leaves sides.
Two days after each treatment, a sample of the treated plants, and the correspondent controls, were collected and all leaves were frozen in liquid nitrogen and freeze dried. After this process, the material was powdered in a pestle and then stored in a dry box at room temperature.

[1] = system: carboxypeptidase activity in cotton sprouts; conditions: for absorbance at 280 nm, Exp. n° 1, PBO Treated Cotton Sprouts / absorbance at 280 nm, Exp. n° 2, PBO Treated Cotton Sprouts / absorbance at 280 nm, Mean, PBO Treated Cotton Sprouts / Carboxypeptidase Activity (U), PBO Treated Cotton Sprouts: pH 6.5; for absorbance at 280 nm, Exp. n° 1, PBO Treated Cotton Sprouts / absorbance at 280 nm, Exp. n° 2, PBO Treated Cotton Sprouts / absorbance at 280 nm, Mean, PBO Treated Cotton Sprouts / % difference of carboxypeptidase activity, treated vs untreated / Δ U (carboxypeptidase activity, untreated vs PBO treated) / Carboxypeptidase Activity (U), PBO Treated Cotton Sprouts: 4th day of germination, PBO 1% w/v
Experimental: The extent of proteolytic activity in cotton sprouts was measured at 30′, 60′, 90′ and […] after suspension of the acetonic powder in aqueous buffer at pH 6.5 by determining the absorbance at 280 nm in a quartz cuvette, after protein precipitation with TCA and removal by centrifugation.
Each series of analysis was performed in duplicate. The comparison between the values of carboxypeptidase activity of treated and untreated samples was done using the average value of each series of analysis.
The basic idea was to “freeze” the physiologic protein hydrolysis enzymatic activity and to re-establish the process simply solubilizing the proteolytic enzymatic system in suitable buffers, which were 0.1 M phosphate pH 6.5 and 0.1 M tris-HCl pH 7.7, for evaluating both the carboxypeptidase and the endopeptidase activities according to the method described by Hile et al. 1972; Funkhouser et al. 1980.
Cotton seeds (cv. Carmela) were obtained from “Semillas Battle”, Barcelona (E).
The seeds were previously rinsed in tap water and then imbibed with aeration in distilled water over night (Funkhouser, E. A. et al., Z. Pflanzenphysiol., 1980, 100, 319-324).
The plastic boxes containing seeds were covered by a plastic film and placed in a germinator in the dark for 4 days at 30° C. as described in Hile, J. N. and Dure, L. S. J. Biol. Chem., 1972, 247: 5034-5040.
The cotton sprouts of 4 days were collected and frozen in liquid nitrogen and freeze dried (Hile et al. 1972). After this process, the material was crushed in a pestle and freed from fibrous material and settled up to obtain a pretty homogeneous meal of about 0.5 mesh.
The meals were defatted using n-hexane (1:10 w/v) at room temperature and then treated with acetone at −20° C. to remove pigments and polyphenolic compounds, in this case mainly gossypol. The powders obtained were stored in a dry box at room temperature.
The acetonic powder (30 mg) was suspended in buffer (4 ml) and incubated at 37° C. for 30, 60, 90, 120 minutes. The proteolysis was stopped adding 1 ml of 12% trichloroacetic acid. In this case, the buffer used was 0.1 M phosphate pH 6.5 (Hile et al. 1972). The control was a suspension of the same sample prepared in the same way but, in this case, it was immediately deactivated, adding 1 ml of trichloroacetic acid. The trials with treated and untreated samples were carried out at the same time.
Proteins were precipitated with trichloroacetic acid and then removed by filtration, before with Whatman paper n. 4 and then by micro-filtration (Orange Scientific Braine I'Alleud, Belgium (Ø0.2 μm)). Finally, the hydrolyzed protein samples were analyzed as clear solutions by determining the absorbance at 280 nm in a quartz cuvette.
Each series of analysis was performed twice. The comparison between the values of carboxypeptidase activity of treated and untreated samples was done using the average value of each series of analysis.

bromelain = bromelain (Ananas comosus, UniProt P14518); assay: biochemical
bromelain, sequence (P14518 whole entry): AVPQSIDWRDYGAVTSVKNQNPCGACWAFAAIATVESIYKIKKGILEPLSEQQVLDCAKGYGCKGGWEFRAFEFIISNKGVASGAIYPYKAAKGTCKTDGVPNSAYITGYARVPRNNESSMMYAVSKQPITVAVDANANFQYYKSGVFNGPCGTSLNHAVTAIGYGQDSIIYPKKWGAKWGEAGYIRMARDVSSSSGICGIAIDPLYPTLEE
Experimental: Reverse micelles assay of ISO-AOT 50 mM (AOT: twin aerosol (2-ethylhexylsodiumsulfosuccinate in isooctane (ISO)); Wo (H2O/AOT)=28
The assays were carried out in the reverse-micelles assay dispersed in organic solvent, described by Walde et al. in Eur. J. Biochem., 1988, 173:401-409, and already reported in the literature in kinetic studies of the inhibition of trypsin with natural and synthetic inhibitors. […]
The enzyme assay on reverse-micelle has been already described in the literature for the enzyme trypsin and was adapted to different enzymes. […] To this solution was added an appropriate volume of substrate CBZ (dissolved in acetonitrile/H2O, 80:20 (v/v) at a concentration of 15 mM) and following further agitation (the solution returned to being transparent), the change in absorbance was measured (Dabs) at 340 nm with a Cary 219 spectrophotometer.
The experimental data obtained are represented graphically in the form of Dixon-plot (described for example in: “Quantitative Problems in Biochemistry”, E A. Dawes, 5th ed. 1972 Baltimore, The Williams and Wilkins Company), in the FIGS. 1, 2 and 3.

[2] = Growth stage 4 days (plantlets)
[3] = Growth stage 35 days (cotyledons)
[4] = Time 0 (immediately deactivated)

CCCCOCCOCCOCc1cc2c(cc1CCC)OCO2 [PBO, 5-[[2-(2-Butoxyethoxy)ethoxy]methyl]-6-propyl-1,3-benzodioxole]
Bt content in PBO-treated samples vs untreated (Bt toxin (Cry1Ac); 35, 60, 85 days after planting): significant lower Bt content | Bt content in PBO-treated samples vs untreated (Bt toxin (Cry1Ac); 4 days): no difference | %: treated − control (Cry1Ac) (Bt toxin (Cry1Ac); [2]): −4.823% | Cry1Ac ppm, cv V2i PBO treated (Bt toxin (Cry1Ac); [2]): 44.60 ppm | Δ: treated − control (Cry1Ac) (Bt toxin (Cry1Ac); [2]): −2.26 ppm | %: treated − control (Cry1Ac) (Bt toxin (Cry1Ac); [3]): 9.149% | Cry1Ac ppm, cv V2i PBO treated (Bt toxin (Cry1Ac); [3]): 66.57 ppm | Δ: treated − control (Cry1Ac) (Bt toxin (Cry1Ac); [3]): 5.58 ppm | %: treated − control (Cry1Ac) (Bt toxin (Cry1Ac); Growth stage 35 days (leaves)): 38.356% | Cry1Ac ppm, cv V2i PBO treated (Bt toxin (Cry1Ac); Growth stage 35 days (leaves)): 45.45 ppm | Δ: treated − control (Cry1Ac) (Bt toxin (Cry1Ac); Growth stage 35 days (leaves)): 12.6 ppm | %: treated − control (Cry1Ac) (Bt toxin (Cry1Ac); Growth stage 60 days (leaves)): 16.629% | Cry1Ac ppm, cv V2i PBO treated (Bt toxin (Cry1Ac); Growth stage 60 days (leaves)): 31.07 ppm | Δ: treated − control (Cry1Ac) (Bt toxin (Cry1Ac); Growth stage 60 days (leaves)): 4.43 ppm | %: treated − control (Cry1Ac) (Bt toxin (Cry1Ac); Growth stage 85 days (leaves)): 13.236% | Cry1Ac ppm, cv V2i PBO treated (Bt toxin (Cry1Ac); Growth stage 85 days (leaves)): 31.91 ppm | Δ: treated − control (Cry1Ac) (Bt toxin (Cry1Ac); Growth stage 85 days (leaves)): 3.73 ppm | amount of transgenic toxin after PBO treatment (Bt toxin (Cry1Ac); cotton transgenic for the Bt CryI protein): higher than in transgenic untreated plants | proteolytic activity related to carboxypeptidase in treated samples ([1]; FIG. 4, treated vs untreated cotton sprouts): lower than in the untreated ones | absorbance at 280 nm, Exp. n° 1, PBO Treated Cotton Sprouts [1, 4]: 0.632 | absorbance at 280 nm, Exp. n° 2, PBO Treated Cotton Sprouts [1, 4]: 0.729 | absorbance at 280 nm, Mean, PBO Treated Cotton Sprouts [1, 4]: 0.68 | % difference of carboxypeptidase activity, treated vs untreated ([1]; Time 30′): 55.7% | Δ U (carboxypeptidase activity, untreated vs PBO treated) ([1]; Time 30′): 0.083 U | Carboxypeptidase Activity (U), PBO Treated Cotton Sprouts ([1]; Time 30′): 0.066 U | absorbance at 280 nm, Exp. n° 1, PBO Treated Cotton Sprouts ([1]; Time 30′): 0.730 | absorbance at 280 nm, Exp. n° 2, PBO Treated Cotton Sprouts ([1]; Time 30′): 0.763 | absorbance at 280 nm, Mean, PBO Treated Cotton Sprouts ([1]; Time 30′): 0.746 | % difference of carboxypeptidase activity, treated vs untreated ([1]; Time 60′): 39.3% | Δ U (carboxypeptidase activity, untreated vs PBO treated) ([1]; Time 60′): 0.081 U | Carboxypeptidase Activity (U), PBO Treated Cotton Sprouts ([1]; Time 60′): 0.125 U | absorbance at 280 nm, Exp. n° 1, PBO Treated Cotton Sprouts ([1]; Time 60′): 0.752 | absorbance at 280 nm, Exp. n° 2, PBO Treated Cotton Sprouts ([1]; Time 60′): 0.858 | absorbance at 280 nm, Mean, PBO Treated Cotton Sprouts ([1]; Time 60′): 0.805 | % difference of carboxypeptidase activity, treated vs untreated ([1]; Time 90′): 43.5% | Δ U (carboxypeptidase activity, untreated vs PBO treated) ([1]; Time 90′): 0.087 U | Carboxypeptidase Activity (U), PBO Treated Cotton Sprouts ([1]; Time 90′): 0.113 U | absorbance at 280 nm, Exp. n° 1, PBO Treated Cotton Sprouts ([1]; Time 90′): 0.880 | absorbance at 280 nm, Exp. n° 2, PBO Treated Cotton Sprouts ([1]; Time 90′): 0.838 | absorbance at 280 nm, Mean, PBO Treated Cotton Sprouts ([1]; Time 90′): 0.859 | % difference of carboxypeptidase activity, treated vs untreated ([1]; Time 120′): 61.0% | Δ U (carboxypeptidase activity, untreated vs PBO treated) ([1]; Time 120′): 0.158 U | Carboxypeptidase Activity (U), PBO Treated Cotton Sprouts ([1]; Time 120′): 0.101 U | absorbance at 280 nm, Exp. n° 1, PBO Treated Cotton Sprouts ([1]; Time 120′): 0.775 | absorbance at 280 nm, Exp. n° 2, PBO Treated Cotton Sprouts ([1]; Time 120′): 0.787 | absorbance at 280 nm, Mean, PBO Treated Cotton Sprouts ([1]; Time 120′): 0.781 | IC50 (bromelain): 400 µM | Ki (bromelain): 100 µM

Reference: patent publication US8017557B2, “Benzodioxole derivatives as modulators of proteolytic activity in plants” (Endura S.p.A., priority 2002, dated 2011)
